Results from ChEMBL document CHEMBL1201862, “PubChem BioAssay data set” (2004).
Activity calls are given as the source filed them.

How the values were obtained:
[1] = target: T1, Methionyl-tRNA synthetase, putative (Trypanosoma brucei brucei, UniProt Q38C91); type: functional, Trypanosoma brucei brucei strain 927/4 GUTat10.1
T1 sequence (Q38C91 whole entry): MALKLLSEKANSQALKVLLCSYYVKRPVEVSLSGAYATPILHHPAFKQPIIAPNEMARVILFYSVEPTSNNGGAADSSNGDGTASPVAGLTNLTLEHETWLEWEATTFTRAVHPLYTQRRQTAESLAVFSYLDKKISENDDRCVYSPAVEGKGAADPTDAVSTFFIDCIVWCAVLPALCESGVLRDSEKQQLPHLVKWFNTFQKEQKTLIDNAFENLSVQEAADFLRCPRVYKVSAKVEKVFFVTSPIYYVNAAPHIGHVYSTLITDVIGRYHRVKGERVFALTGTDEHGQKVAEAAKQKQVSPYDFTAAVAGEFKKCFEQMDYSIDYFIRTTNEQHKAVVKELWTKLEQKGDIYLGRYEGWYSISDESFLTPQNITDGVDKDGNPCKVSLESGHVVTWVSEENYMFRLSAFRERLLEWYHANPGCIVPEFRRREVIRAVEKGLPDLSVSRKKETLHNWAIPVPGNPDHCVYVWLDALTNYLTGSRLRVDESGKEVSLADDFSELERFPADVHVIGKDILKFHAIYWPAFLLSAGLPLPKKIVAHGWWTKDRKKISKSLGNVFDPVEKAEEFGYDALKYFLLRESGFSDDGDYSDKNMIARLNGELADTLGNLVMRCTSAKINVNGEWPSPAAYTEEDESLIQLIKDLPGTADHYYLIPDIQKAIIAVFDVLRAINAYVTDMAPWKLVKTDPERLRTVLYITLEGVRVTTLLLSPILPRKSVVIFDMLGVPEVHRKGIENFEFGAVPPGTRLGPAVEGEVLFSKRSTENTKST

[2] = Counterscreen for inhibitors of Trypanosoma brucei methionyl tRNA synthetase (MetRS): Luminescence-based cell-based high throughput dose response assay to identify compounds that are cytotoxic to Jurkat human T lymphocyte cells.; type: functional
[3] = target: T1, Methionyl-tRNA synthetase, putative; type: functional, Trypanosoma brucei brucei strain 927/4 GUTat10.1; remark: listed apart in the source
[4] = Late stage counterscreen for inhibitors of Trypanosoma brucei methionyl tRNA synthetase (MetRS): Luminescence-based cell-based high throughput dose response assay to identify compounds that are cytotoxic to Jurkat human T lymphocyte cells.; type: functional
Protein Tat = Protein Tat (Human immunodeficiency virus type 1 group M subtype B (isolate HXB2)(HIV-1), UniProt P04608); type: functional;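 also: tat binding to TAR RNA read out by fluorescence polarization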
[5] = HEp-2 cell cytotoxicity, dose response, cytotoxicity control for RSV inhibitor project, HTS (AID 2410); type: functional; settings: human respiratory syncytial virus
[6] = target: Dual specificity tyrosine-phosphorylation-regulated kinase 1A (Rattus norvegicus, UniProt Q63470); type: biochemical, Homo sapiens
[7] = target: T2, Oxysterols receptor LXR-beta (Homo sapiens, UniProt P55055); type: functional, cell-based;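 also: Cell-based luminescence dose-response assay of agonist activity at LXR, run as a confirmatory counterscreen to a daf-12 agonist screen; HEK293 cells with Gal4-LXR fusion and GAL4-driven luciferase reporter; agonist potency from rising luciferase signal of a Gal4-LXR reporter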
T2 sequence (P55055 whole entry): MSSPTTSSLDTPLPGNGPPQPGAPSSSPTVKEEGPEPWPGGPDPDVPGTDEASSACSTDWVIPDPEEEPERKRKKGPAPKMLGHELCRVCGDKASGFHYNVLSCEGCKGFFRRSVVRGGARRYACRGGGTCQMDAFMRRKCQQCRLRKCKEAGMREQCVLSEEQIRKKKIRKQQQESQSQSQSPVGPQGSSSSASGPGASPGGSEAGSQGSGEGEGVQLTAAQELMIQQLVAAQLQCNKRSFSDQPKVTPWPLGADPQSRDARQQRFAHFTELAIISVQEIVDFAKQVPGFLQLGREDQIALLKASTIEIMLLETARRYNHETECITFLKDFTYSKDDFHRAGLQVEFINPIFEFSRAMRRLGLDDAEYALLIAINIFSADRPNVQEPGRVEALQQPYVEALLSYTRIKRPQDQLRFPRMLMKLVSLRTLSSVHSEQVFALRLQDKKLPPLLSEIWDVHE

cells [8] = assay: cells
[9] = P. falciparum Dd2 growth inhibitors, dose response, SYBR Green, cherry-picked samples (AID 1159567); type: functional, cell-based
[10] = HepG2 cell cytotoxicity, dose response, cytotoxicity control, cherry-picked samples (AID 1159577); type: functional, cell-based
[11] = Dose-response inhibition of insulin secretion in a rat insulinoma line at 5 mM glucose (AID 1117331); type: functional, cell-based; settings: INS-1E
cells [12] = type: functional, cell-based; settings: INS-1E
[13] = HeLa 2N DNA content increase, dose response, cell-based, IC50 (AID 1117349); type: functional
[14] = HeLa 4N DNA content increase, dose response, cell-based, IC50 (AID 1117351); type: functional

Sequence of Protein Tat (P04608 whole entry): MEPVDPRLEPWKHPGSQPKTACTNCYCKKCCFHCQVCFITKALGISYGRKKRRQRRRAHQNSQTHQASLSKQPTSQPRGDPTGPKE

Structure (SMILES): Cc1nc2ccc(Br)cc2c(O)c1CN1CCCCCC1
- IC50 [1]: 6.91 µM (active)
- IC50 [2]: 83.3 µM (inactive)
- IC50 [3]: 4.16 µM (active)
- IC50 [4]: > 83.3 µM (inactive)

Structure (SMILES): CCOc1ccc(-c2nnn(CC(=O)c3ccc4c(c3)OCCO4)n2)cc1OCC
- IC50 (Protein Tat): > 100 µM (active)

Structure (SMILES): Oc1ccc(-c2nccc(-c3cccs3)n2)cc1
- CC50 [5]: 27.9 µM (active)
- AC50 [6]: 6.5 µM (active)
- EC50 [7]: > 67.6 µM (inactive)
- EC50 (cells [8]): > 67.6 µM (inactive)

Structure (SMILES): COc1ccc2c3c(n(C)c2c1)[C@H](CO)NCC31CN(Cc2ccc(-c3ccccn3)cc2)C1
- AC50 [9]: 1.15 µM (active)
- AC50 [10]: 11.6 µM (active)

Structure (SMILES): C[C@@H]1CN([C@@H](C)CO)C(=O)c2c(c3ccccc3n2C)-c2ccccc2CO[C@@H]1CN(C)Cc1cccc(F)c1
- AC50 [9]: 3.5 µM (active)
- AC50 [10]: 23.5 µM (active)

Structure (SMILES): COc1cc(C(=O)OCCCN2CCCN(CCCOC(=O)c3cc(OC)c(OC)c(OC)c3)CC2)cc(OC)c1OC [DILAZEP]
- IC50 [11]: 10.2 µM (inactive)
- IC50 (cells [12]): 18 µM (inactive)

Structure (SMILES): COc1ccc(-c2nc3cc(C4=NNC(=O)CC4C)ccc3[nH]2)cc1 (configuration not stated) [PIMOBENDAN]
- IC50 [13]: > 10 µM (inactive)
- IC50 [14]: > 10 µM (inactive)
